The source of these data is ChEMBL document CHEMBL2429781, “Cell-based medicinal chemistry optimization of high-throughput screening (HTS) hits for orally active antimalarials. Part 1: challenges in potency and absorption, distribution, metabolism, excretion/pharmacokinetics (ADME/PK)” (J Med Chem, 2013).

Data set [1] concerns Plasmodium falciparum. Put plainly: Antiplasmodial activity against chloroquine-sensitive Plasmodium falciparum 3D7. The format is functional, organism-based.
A short description of data set [2]: Half life in mouse liver microsomes. The format is ADME, Microsome.
The nature of data set [3]: Aqueous solubility of the compound. Format: physicochemical. The conditions noted are these: aqueous (not further specified).
In data set [4] the test system is Plasmodium falciparum. Put plainly: Antiplasmodial activity against Plasmodium falciparum W2/Indochina after 72 hrs by SYBR Green method. The format is functional.
Data set [5] concerns the target Voltage-gated inwardly rectifying potassium channel KCNH2 (Homo sapiens, UniProt Q12809). Kind of data set: Binding affinity to human ERG channel.
For data set [6], the system named is Plasmodium falciparum. Put plainly: Antiplasmodial activity against Plasmodium falciparum W2. The format is functional, organism-based.
Data set [7] in a line: Solubility of the compound at pH 6.8. Format: physicochemical. The conditions noted are these: buffer.
The test system of data set [8] is Plasmodium falciparum. Put plainly: Antimicrobial activity against clinical isolates of Plasmodium falciparum. Format: functional, organism-based.
Data set [9] can be described thus: Elimination half life in CD-1 mouse at 5 mg/kg, po. The format is ADME, organism-based. Set-up: dose 5 mg/kg, route oral. The conditions noted are these: in vivo, read-out: beta t1/2 (converted).
A further data set relates to Plasmodium berghei. Kind of data set: Antiplasmodial activity against Plasmodium berghei infected po dosed CD-1 mouse model administered qd measured on day 4. The following applies: 96 h. The format is functional.
For data set [10], the system named is Plasmodium falciparum. Put plainly: Antiplasmodial activity against blood stage Plasmodium falciparum 3D7 by SYBR Green method. The format is functional, organism-based.
In data set [11] the test system is Plasmodium falciparum. Put plainly: Antiplasmodial activity against wild type Plasmodium falciparum 3D7. Format: functional, organism-based.
Data set [12] in a line: Half life in mouse hepatic microsomes by LC/MS analysis in presence of NADPH. The following applies: liver microsomes. The format is ADME. (Liver microsomes are vesicles of endoplasmic reticulum, rich in cytochrome P450 enzymes.)
Data set [13] has as its system Plasmodium falciparum. Kind of data set: Antiplasmodial activity against atovaquone-resistant Plasmodium falciparum Tm90.C2B after 72 hrs by MSF assay. The format is functional, organism-based.
Data set [14] deals with Plasmodium falciparum. Put plainly: Antiplasmodial activity against Plasmodium falciparum after 72 hrs by MSF assay. The format is functional, organism-based.
Data set [15] deals with Plasmodium falciparum. Kind of data set: Antiplasmodial activity against blood stage form of Plasmodium falciparum NF54. The format is functional, organism-based.
Another data set relates to Plasmodium. Kind of data set: Antimicrobial activity against Plasmodium. Format: functional.

Converted amounts (≈) assume the structure as drawn.

Sequence of Voltage-gated inwardly rectifying potassium channel KCNH2 (Q12809 whole entry): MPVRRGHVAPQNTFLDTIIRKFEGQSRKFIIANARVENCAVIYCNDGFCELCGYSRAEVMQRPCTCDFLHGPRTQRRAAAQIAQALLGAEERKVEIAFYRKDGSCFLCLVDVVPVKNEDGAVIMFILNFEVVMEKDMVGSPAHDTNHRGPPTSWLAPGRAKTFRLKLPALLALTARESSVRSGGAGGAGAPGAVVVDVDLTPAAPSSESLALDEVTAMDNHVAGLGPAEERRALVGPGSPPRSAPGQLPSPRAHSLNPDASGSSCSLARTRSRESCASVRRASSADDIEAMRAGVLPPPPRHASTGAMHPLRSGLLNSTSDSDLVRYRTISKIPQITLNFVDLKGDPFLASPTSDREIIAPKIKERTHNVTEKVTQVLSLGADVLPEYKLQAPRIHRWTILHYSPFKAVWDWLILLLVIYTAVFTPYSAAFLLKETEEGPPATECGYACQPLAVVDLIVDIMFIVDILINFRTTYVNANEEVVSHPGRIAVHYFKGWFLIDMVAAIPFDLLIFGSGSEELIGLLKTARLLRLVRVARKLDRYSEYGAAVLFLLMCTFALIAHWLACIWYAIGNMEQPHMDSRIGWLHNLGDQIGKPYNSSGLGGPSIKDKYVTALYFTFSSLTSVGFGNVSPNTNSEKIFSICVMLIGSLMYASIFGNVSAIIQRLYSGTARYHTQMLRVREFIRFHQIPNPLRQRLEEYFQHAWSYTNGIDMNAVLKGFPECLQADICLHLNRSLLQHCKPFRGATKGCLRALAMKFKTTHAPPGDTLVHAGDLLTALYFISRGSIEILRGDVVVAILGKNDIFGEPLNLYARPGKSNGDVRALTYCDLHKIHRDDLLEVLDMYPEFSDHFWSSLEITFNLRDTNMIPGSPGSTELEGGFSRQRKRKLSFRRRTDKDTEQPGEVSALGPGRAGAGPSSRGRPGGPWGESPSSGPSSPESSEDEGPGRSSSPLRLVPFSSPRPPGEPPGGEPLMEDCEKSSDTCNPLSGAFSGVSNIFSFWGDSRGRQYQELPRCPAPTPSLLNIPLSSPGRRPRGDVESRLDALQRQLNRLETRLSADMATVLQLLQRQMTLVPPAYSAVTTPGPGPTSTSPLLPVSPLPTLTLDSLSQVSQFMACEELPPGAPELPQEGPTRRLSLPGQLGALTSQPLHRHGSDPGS

On to `FC(F)(F)Oc1ccc(Nc2cc(Nc3nccn3-c3cccc(C(F)(F)F)c3)ncn2)cc1`, for which a half-maximal response in the data set with Plasmodium falciparum [1] (EC50) required 420 nM.

In turn, `O=c1c2c([nH]c3ccc(-c4ccc(C(F)(F)F)cc4)cc13)CCSC2` registered a half-life in data set [2] of more than 3 h. The compound further had a solubility in data set [3] of 2 µM (≈ 0.723 µg/mL). Also, the Activity in the data set with Plasmodium falciparum [4] turned out to be 30 nM.

`CC1(C)c2nc(-c3ccc(F)cc3)c(Nc3ccc(Cl)cc3)n2CCN1C(=O)CN` returned a concentration for half-maximal inhibition (IC50) in [5] of 7200 nM. Moreover, the EC50 in the data set with Plasmodium falciparum [6] came to 6 nM.

In the case of `COc1cc2[nH]c(C)c(-c3ccc(Oc4ccc(OC(F)(F)F)cc4)cc3)c(=O)c2cc1Cl`, the solubility in data set [7] is less than 1 µM. Further, it took 1 nM to reach a half-maximal effect in the data set with Plasmodium falciparum [8] (EC50).

As to `CCOC(=O)c1c(-c2ccc(-c3ccc(OC(F)(F)F)cc3)cn2)[nH]c2ccccc2c1=O`, in data set [9], the half-life is 10.6 h. Moreover, it took a dose of 2 mg/kg to reach the 50% effect level in the data set on Plasmodium berghei (ED50). Moreover, the midpoint of the response in the data set with Plasmodium falciparum [10], the EC50, lay at 30 nM.

`CCOC(=O)c1c(C)[nH]c2cc(Cc3ccc(OC(F)(F)F)cc3)ccc2c1=O`: the EC50 in the data set with Plasmodium falciparum [11] turned out to be 0.46 nM.

In the case of `CCCCCCCc1c(C)[nH]c2cc(F)cc(F)c2c1=O`, the half-life in [12] is 0.245 h. Besides, the figures for the EC50 with Plasmodium falciparum [13] and with Plasmodium falciparum [14] were 80 nM and 0.1 nM, respectively.

With `COc1ccc2c(=O)c(CCCCCC(F)(F)F)c(C)[nH]c2c1`, the EC50 in the data set with Plasmodium falciparum [13] came to 66 nM; with Plasmodium falciparum [14], 30 nM.

In the data set with Plasmodium falciparum [15], `C[C@H]1Cc2c([nH]c3cc(Cl)c(F)cc23)[C@@]2(N1)C(=O)Nc1ccc(Cl)cc12` [CIPARGAMIN] had an EC50 of 1 nM.

In the data set with Plasmodium, `Cc1nc(C)c(Cl)c(O)c1Cl` [CLOPIDOL] displayed a half-maximal effective concentration (EC50) of 20000 nM.

Broadly, the EC50 is the concentration needed to bring the measured effect to its halfway point. As usually defined, the solubility is how much of the substance goes into solution per volume. The IC50 is the concentration at which inhibition is half-maximal. A high value points to a need for much substance. Usually ED50 stands for the dose at which the effect has come halfway, by size or by number of responders.
